Reference: patent US8889876B2, “Histone deacetylase inhibitors and uses thereof” (Jiangsu Hengyi Pharmaceutical Co., Ltd., priority 2008, dated 2014)

Tests used:
Assay type in all cases: cell-based
[1] = system: PANC-1 human pancreatic cancer cells; test: CCK-8 proliferation inhibition, PANC-1; conditions: Homo sapiens; for inhibition at 10 µM: PANC-1, 10 μM; for inhibition at 100 µM: PANC-1, 100 μM
Experimental: (§1) Detecting the inhibition rate of the compound concentrations of 100 μM and 10 μM to Hut78 T-cell Leukemia cell, Jurkat E6-1 human T-cell lymphoma, PANC-1 human pancreatic cancer cells, A549 human lung cancer cells, K562 human chronic myeloid leukemia cells, Hep3B2.1-7 human liver cancer cells, MDA-MB-435s human breast cancer cells, Colo320 human rectal cancer cells and PC-3 human prostate cancer using CCK-8 method.

[2] = system: K562 human chronic myeloid leukemia cells; test: CCK-8 proliferation inhibition, K562; conditions: Homo sapiens; for inhibition at 10 µM: K562, 10 μM; for inhibition at 100 µM: K562, 100 μM
Experimental: as §1

[3] = system: Jurkat E6-1 human T-cell lymphoma; test: CCK-8 proliferation inhibition, Jurkat E6-1; conditions: Homo sapiens; for inhibition at 10 µM: Jurkat E6.1, 10 μM; for inhibition at 100 µM: Jurkat E6.1, 100 μM
Experimental: as §1

[4] = system: A549 human lung cancer cells; test: CCK-8 proliferation inhibition, A549; conditions: Homo sapiens, A549, CCK-8 method; for inhibition at 10 µM: compound concentration 10 μM; for inhibition at 100 µM: compound concentration 100 μM
Experimental: as §1

[5] = system: Colo320 human rectal cancer cells; test: CCK-8 proliferation inhibition, Colo320; conditions: Homo sapiens, COLO 320, CCK-8 method; for inhibition at 10 µM: compound concentration 10 μM; for inhibition at 100 µM: compound concentration 100 μM
Experimental: as §1

[6] = system: PC-3 human prostate cancer; test: CCK-8 proliferation inhibition, PC-3; conditions: Homo sapiens, CCK-8 method; for inhibition at 10 µM: compound concentration 10 μM; for inhibition at 100 µM: compound concentration 100 μM
Experimental: as §1

[7] = system: Hep3B2.1-7 human liver cancer cells; test: CCK-8 proliferation inhibition, Hep3B2.1-7; conditions: Homo sapiens, Hep3B, CCK-8 method; for inhibition at 10 µM: compound concentration 10 μM; for inhibition at 100 µM: compound concentration 100 μM
Experimental: as §1

[8] = system: Hut78 T-cell Leukemia cell; test: CCK-8 proliferation inhibition, Hut78; conditions: Homo sapiens, read-out: Hut-78 (inhibition %); for inhibition at 10 µM: HuT78, 10 μM; for inhibition at 100 µM: HuT78, 100 μM
Experimental: as §1

[9] = system: MDA-MB-435s human breast cancer cells; test: CCK-8 proliferation inhibition, MDA-MB-435s; conditions: Homo sapiens, MDA-MB-435S, CCK-8 method; for inhibition at 10 µM: compound concentration 10 μM; for inhibition at 100 µM: compound concentration 100 μM
Experimental: as §1

| Compound | inhibition at 10 µM [1] [%] | inhibition at 100 µM [1] [%] | inhibition at 10 µM [2] [%] | inhibition at 100 µM [2] [%] | inhibition at 10 µM [3] [%] | inhibition at 100 µM [3] [%] | inhibition at 10 µM [4] [%] | inhibition at 100 µM [4] [%] | inhibition at 10 µM [5] [%] | inhibition at 100 µM [5] [%] | inhibition at 10 µM [6] [%] | inhibition at 100 µM [6] [%] | inhibition at 10 µM [7] [%] | inhibition at 100 µM [7] [%] | inhibition at 10 µM [8] [%] | inhibition at 100 µM [8] [%] | inhibition at 10 µM [9] [%] | inhibition at 100 µM [9] [%] |
| --- | --- | --- | --- | --- | --- | --- | --- | --- | --- | --- | --- | --- | --- | --- | --- | --- | --- | --- |
| Cc1ccc(COC(=O)NCc2ccc(C(=O)Nc3ccncc3N)cc2)cc1 [V-10] | 16.9 | 19.7 | 53.6 | 87.2 | 27.2 | 93.3 | -16.9 | 45.7 | -5.5 | 59.2 | 23.7 | 56 | -7 | 57.5 | 15.5 | 66.6 | 8 | 79.1 |
| COc1ccc(COC(=O)NCc2ccc(C(=O)Nc3ccncc3N)cc2)cc1 [V-12] | -1.8 | 34.9 | 56.9 | 94.5 | 36.4 | 96.3 | -5.9 | 38 | -1.8 | 86.4 | 29.7 | 89.3 | 5 | 90.4 | 17.5 | 83.6 | 14.2 | 94.5 |
| Nc1ncccc1NC(=O)c1ccc(CNC(=O)OCc2ccc([N+](=O)[O-])cc2)cc1 [V-15, N-(2-amino-3-pyridyl)-4-[(4-nitrobenzyloxyacyl)aminomethyl]benzamide] | 24 | 21.1 | 20.4 | 32.3 | 18.6 | 26.3 | 15.3 | 12.9 | 2.6 | 4.1 | 21.9 | 18.8 | 22.3 | 43 | 28.5 | 24.6 | 30.6 | 42.4 |
| Nc1ncccc1NC(=O)c1ccc(CNC(=O)OCc2ccc(F)cc2)cc1 [V-19, N-(2-amino-3-pyridyl)-4-[(4-fluorobenzyloxyacyl)aminomethyl]benzamide] | 26 | 36.8 | 25 | 65.1 | 19.1 | 77.8 | 18.3 | 57.1 | 0.9 | 34.3 | -1.9 | 48.5 | 21.5 | 69.8 | 19.8 | 54 | 27.5 | 89.1 |
| Nc1cnccc1NC(=O)c1ccc(CNC(=O)OCc2ccc(F)cc2)cc1 [V-20] | -2.8 | 15.7 | 34 | 88.7 | 23.8 | 96.5 | -17.6 | 72.2 | -14.3 | 82.7 | 22.9 | 84.4 | 7.2 | 79.3 | 22 | 91.1 | 19.5 | 63.9 |
| Nc1ncccc1NC(=O)c1ccc(CNC(=O)/C=C/c2ccccc2)cc1 [V-25, N-(2-amino-3-pyridyl)-4-(cinnamoylaminomethyl)benzamide] | 12 | 25.1 | 33.6 | 72.4 | 20.3 | 80.2 | 29.8 | 67.9 | 4.9 | 28.9 | 41.8 | 67.1 | 18.4 | 45.7 | 23.4 | 53.5 | 32.5 | 73.3 |
| Cc1ccc(/C=C/C(=O)NCc2ccc(C(=O)Nc3cccnc3N)cc2)cc1 [V-27, N-(2-amino-3-pyridyl)-4-[(4-methylcinnamoyl)aminomethyl]benzamide] | 20.2 | 26.2 | 54.3 | 85.8 | 58.3 | 80.9 | 6.3 | 37.3 | 12.9 | 40.1 | 50.2 | 61 | 25.4 | 49.9 | 43 | 77 | 33 | 77 |
| COc1ccc(/C=C/C(=O)NCc2ccc(C(=O)Nc3cccnc3N)cc2)cc1 [V-29, N-(2-amino-3-pyridyl)-4-[(4-methoxycinnamoyl)aminomethyl]benzamide] | 12.5 | 33.3 | 52.2 | 85.2 | 49.3 | 89.7 | 0 | 41.3 | 9.5 | 45.9 | 40.1 | 64.2 | 11 | 68.1 | 45.2 | 75.6 | 17 | 57.8 |
| Nc1ncccc1NC(=O)c1ccc(CNC(=O)/C=C/c2ccc(F)cc2)cc1 [V-40, N-(2-amino-3-pyridyl)-4-[(4-fluorocinnamoyl)aminomethyl]benzamide] | 4.4 | 9.5 | 45 | 75 | 31.6 | 87.6 | 2.8 | 47.7 | 10 | 32.3 | 6.3 | 38.8 | -5 | 51.7 | 29.2 | 69.3 | 28.5 | 76.3 |
| Nc1cnccc1NC(=O)c1ccc(CNC(=O)/C=C/c2cccnc2)cc1 [V-43] | 3.1 | 35.9 | 13.8 | 60.8 | 69.1 | 96.8 | 41.2 | 85.5 | 19.1 | 59.4 | 88 | 94.5 | 22.5 | 60.5 | 25.7 | 49.6 | 18.8 | 86.4 |
| Nc1ncccc1NC(=O)c1ccc(CNC(=O)/C=C/c2ccc3ccccc3c2)cc1 [V-46, N-(2-amino-3-pyridyl)-4-(2-naphthylacryloylaminomethyl)benzamide] | 8.1 | 0.4 | 27.3 | 18.9 | 14.8 | 1.9 | 7.7 | 4.1 | 13.7 | -9 | -1.7 | -2.4 | 17.5 | -5 | 16.4 | 13.4 | 16.4 | 4.1 |
| Nc1ncccc1NC(=O)c1ccc(CNC(=O)CCc2ccccc2)cc1 [V-48, N-(2-amino-3-pyridyl)-4-[(3-phenylpropionyl)aminomethyl]benzamide] | -2.2 | -1.8 | 20 | 57.2 | 9.7 | 61.9 | 3.9 | 9.8 | 2.9 | 17.9 | -16.4 | 14.8 | -14 | 20.5 | -0.4 | 47.4 | 10 | 26.6 |
